Laboratory results as given in US20180305408A1, “COMPOUNDS FOR INDUCING TISSUE FORMATION AND USES THEREOF” (HISTIDE AG, priority 2015, published 2018).
No end group written: not given here.

How the values were obtained:
[1] = system: Hair Follicle Stem Cells; assay: Activation of hair follicle stem cells (Sox2 expression, BMP-6 release); format: cell-based, Mouse
Description: The following starting materials and reagents were used: • Apatite ceramics (also called apatite or ceramic in the present invention) were synthetized as described in Mater Res. 2004; 7(4): 625-630. • Titanium was obtained from Goodfellow®. • Hydrogel (poly(acrylamide-co-acrylic acid) gel) was synthetized as described in Langmuir 2011; 27(22):13635-42. • PEEK was obtained from Goodfellow®. • PET (Poly(ethylene terephthtalate) was obtained from Goodfellow@. • Type-I collagen sponge was obtained from Sigma®. • Hexane was obtained from Sigma®. • 3-succinimidyl-3-maleimidopropionate (SMP) was obtained from Sigma®. • DMF was obtained from Sigma®. • PBS 1× was obtained from Gibco®. • 3-(ethoxydimethylsilyl)propylamine was obtained from Sigma®. • Ammonium persulfate was obtained from Biorad®. • N,N,N′,N′-tetramethylethylenediamine was obtained from Aldrich®. • Acrylamid was obtained from Merck®. • Acrylic acid was obtained from Merck®. • N,N-methylene-bis-acrylamide was obtained from Merck®. • NaOH was obtained from Aldrich®. • N,N,N′,N′-tetramethylethylenediamine was obtained from Aldrich®. • Dimethylaminopropyl-3-ethylcarbodiimide hydrochloride was obtained from Aldrich®. • N-hydroxysuccinimide was obtained from Aldrich®. • 2-(N-morpholino)-ethane sulfonic acid was obtained from Aldrich®. • MilliQ water: is water characterised in terms of resistivity (typically 18.2 MΩ·cm at 25° C.). • Low glucose Dulbecco's Modified Eagle Medium (DMEM) was obtained from Invitrogen® • Minimum Essential Medium Eagle without ascorbic acid (αMEM) was obtained from Invitrogen®. • All of the cell culture experiments were carried out without any serum in the medium for the first 8 hours of culture. • Osteoblast progenitors or precursor osteoblasts: MC3T3-E1 cells were obtained from ATCC®. These cells were cultured in Alpha-MEM medium supplemented with 10% fetal calf serum (FCS) and 1% penicillin/streptomycin. All cells were used at a low passage number (passage 7), were subconfluently cultured and were seeded at 10^4 cells/cm^2 for the purpose of the experiments. • Human bone marrow Mesenchymal Stem Cells (hMSCs) were obtained from Lonza®. These cells were cultured in Alpha-MEM supplemented with 10% (v/v) FBS and 1% penicillin/streptomycin and incubated in a humidified atmosphere containing 5% (v/v) CO2 at 37° C. All cells were used at a low passage number (passage 2 to 4), were subconfluently cultured and were seeded at 10^4 cells/cm^2 for the purpose of the experiments. • Human adipose Mesenchymal Stem Cells (haMSCs) were obtained from Lonza®. These cells were cultured in Alpha-MEM supplemented with 10% (v/v) FBS and 1% penicillin/streptomycin and incubated in a humidified atmosphere containing 5% (v/v) CO2 at 37° C. […]

[2] = system: Neurons; assay: Neuron growth (dendrite growth, GAP43 Q-PCR); format: cell-based
Description: […]

[3] = system: Human umbilical-vein endothelial cells; assay: Endothelialization: area of adherent junctions (CD31) in HUVECs; format: cell-based; details: after 36 hours of culture
Description: Human umbilical-vein endothelial cells were cultured with and without endothelialization GFR-binding compounds as defined herein (SEQ ID NO: 26). An increase in the area of the adherent junctions (CD31) was observed after 36 hours of culture with GFR-binding compounds as defined herein (FIG. 10).

[4] = system: hMSCs; assay: Cartilage regeneration: chondrocyte differentiation of hMSCs (Sox9, Aggrecan); format: cell-based, Human; details: after 96 hours of culture
Description: (§1) Total RNA was extracted by using the RNeasy total RNA kit (Qiagen®) according to the manufacturer's instructions. Purified total RNA was used as a template in order to make cDNA by a reverse transcription reaction (Gibco Brl®) with random primers (Invitrogen®). The cDNA was then used as a template for a real-time PCR amplification in the presence of SYBR green reagents (Bio-Rad®) by using a thermocycler (iCycler, Biorad®). Data were analyzed with the iCycler IQ™® software and compared by the ΔΔCt method. […]
Total RNA was extracted by using the RNeasy Mini Kit (Qiagen) and […] RNA was used for cDNA synthesis with AMV kit (Invitrogen®) according to the manufacturer′ instructions. Semi-quantitative reverse transcriptase-polymerase chain reaction (RT-PCR) was performed with Taq DNA Polymerase (Invitrogen®) in a thermocycler (Bio-Rad®). […] The PCR products were analyzed on 2% agarose gels. For the Aggrecan gene, the PCR bands were densitometrically quantified by using the BioCapt software (Vilber). […]
It was then verified that these hMSCs cultured with and without GFR-binding compounds as defined herein were differentiated into chondrocyte cells by analyzing the expression of the chondrocyte gene biomarker: Aggrecan. […] For that a semi-quantitative RT-PCR was performed as described in the Methods section for the Aggrecan gene and a Quantitative Real Time PCR for Sox9.

[5] = system: Human umbilical-vein endothelial cells; assay: Angiogenesis: tube-like structure formation by HUVECs; format: cell-based; details: after 18 hours of culture
Description: Human umbilical-vein endothelial cells were cultured with and without vascular peptides (SEQ ID NO: 27).

[6] = Stability of non-covalent coating of fluorescent peptides on apatite ceramics or type-I collagen sponge; format: physicochemical; details: FITC-bound peptide on apatite ceramics or type-I collagen sponge; after 3, 7 or 10 days
Description: Non-covalent modifications of the materials were performed in Air Atmosphere at room temperature. The non-covalent coating strategy consisted in using a mixture of compound of the invention (SEQ ID NO: 9; concentration of 1×10^−3M) with an apatite ceramics implant or a mixture of compound of the invention (SEQ ID NO: 10; concentration of 1×10^−3M) with a type-I collagen sponge. The non-covalently coated conventional materials were characterized by using fluorescent peptides (Here SEQ ID NO: 9 and 10 covalently bound to fluorescein isothiocyanate (FITC), FIG. 3). The results shown here in FIG. 3 were obtained from experiments performed with apatite ceramics and a type-I collagen sponge. […] Indeed, after 3, 7 or 10 days, the osteogenic peptides were still coupled to the ceramics or the type-I collagen (FIG. 4). The biomaterial surface was characterized by X-ray photoelectron spectroscopy (Table 1). The X-ray photoelectron spectroscopy was performed as described in the Methods section.

[7] = system: osteoblast progenitors; assay: Osteogenic differentiation of osteoblast progenitors on coated materials (Osteopontin staining, Runx2 Q-PCR); format: cell-based; details: 48 hours on coated apatite ceramics or type-I collagen sponge vs native materials
Description: The cells were first fixed for 20 min with 4% paraformaldehyde/PBS at 4° C. After fixation, the cells were permeabilized in PBS containing 1% Triton X-100 for 15 min. Runx2, Osterix, Stro-1, Vinculin, Phalloidin, Osteopontin, Sox2, Sox9 antibodies were visualized by treating the cells with 1% (v/v) specific monoclonal antibodies for 1 hour at 37° C. Then the samples were incubated with Alexa Fluor® 568 or 647 (F(ab′)2 fragment of IgG(H+L)) during 30 min at room temperature. The cell nuclei were counterstained in 20 ng/mL DAPI for 10 min at room temperature.
as §1, with “The cDNA was then used as a template for a real-time PCR amplification in the presence of SYBR green reagents (Bio-Rad®) by using a thermocycler (iCycler, Biorad®).” left out
The effect of the GFR-binding compounds as defined herein (SEQ ID NO: 19 and 20) on the differentiation of osteoblast progenitors was evaluated. […]
Finally, it was verified that the osteoblast progenitors were differentiated into mature osteoblasts by analyzing the expression of the osteogenic biomarker Runx2. An increase in the Runx2 gene expression after 24 hours of culture (FIG. 8a) was observed by using Quantitative Real Time Polymerase Chain Reaction as described in the Methods section.

[8] = system: hMSCs; assay: ALP activity of hMSCs on type-I collagen sponge coupled with compound; format: cell-based, Human; details: after 1 week of culture on type-I collagen sponge
Description: Finally, it was verified that the hMSCs were differentiated into mature osteoblasts by analyzing the activity of the osteogenic biomarker ALP (Alkaline Phosphatase Activity). We observed an increase in the ALP activity after 1 week of culture on type-I collagen sponge coupled with GFR-binding compounds as defined herein (SEQ ID NO: 19) (FIG. 8b).

Substance: SEQ ID NO: 29: GFR-binding compound tested on hair follicle stem cells; sequence not in this part (DENKNSSLSILFFDENKNVVLKVYP; also: cyclic, ring type not given here)
- BMP-6 release in the cell culture medium [1]: decrease
- Sox2 protein expression [1]: increase

Substance: SEQ ID NO: 38: neurogenic peptide; sequence not in this part (SPISILYIDAANNVVYKQYEDAAN; also: cyclic, ring type not given here)
- establishment of cell-cell contacts via dendrite growth ([2]; after 6 hours of culture): rapid establishment of cell-cell contacts
- GAP43 gene expression ([2]; after 48 hours of culture, Q-PCR): high level of expression

Substance: SEQ ID NO: 26: endothelialization GFR-binding compound; sequence not in this part (RSVKVAKVRIKPHQGQHKEVQVGG; also: cyclic, ring type not given here)
- area of the adherent junctions (CD31) [3]: increase

Substance: SEQ ID NO: 24: GFR-binding compound inducing cartilage regeneration; sequence not in this part (EPLPIVYYVGRTPKVEQLSNGG; also: cyclic, ring type not given here)
- expression of the Sox9 protein [4]: expression of the Sox9 protein was observed

Substance: SEQ ID NO: 27: vascular peptide; sequence not in this part (SNITMQIMRIKPHQGQHIGEMSGG; also: cyclic, ring type not given here)
- formation of tube-like structures [5]: formation of tube-like structures was observed

Substance: SEQ ID NO: 23: GFR-binding compound inducing cartilage regeneration; sequence not in this part (ELEPLPIVYYVGRKPKVEQLSNGG; also: cyclic, ring type not given here)
- expression of the Sox9 protein [4]: expression of the Sox9 protein was observed

Substance: SEQ ID NO: 9: compound of the invention non-covalently coated on apatite ceramics; tested bound to FITC; sequence not in this part (WWFWGSAISTLYLIGKTPKILKNYQ; also: FITC label, site not given here, cyclic, ring not given here)
- release of peptides from the coated material over time [6]: no significant release

Substance: SEQ ID NO: 20: GFR-binding compound, osteogenic, coated on apatite ceramics or collagen sponge; sequence not in this part (GTPGPSAISTLYLGGGGLKNYQ; also: cyclic, ring type not given here)
- production of extracellular matrix proteins such as Osteopontin (OPN) [7]: extensive amounts

Substance: SEQ ID NO: 10: compound of the invention non-covalently coated on type-I collagen sponge; tested bound to FITC; sequence not in this part (GTPGPSAISTLYLIGKTPKILKNYQ; also: cyclic, ring type not given here, bound to FITC, place not given here)
- release of peptides from the coated material over time [6]: no significant release

Substance: SEQ ID NO: 30: GFR-binding compound tested on hair follicle stem cells; sequence not in this part (DENEKSSLSILFFDENEKVVLKVYP; also: cyclic, ring type not given here)
- BMP-6 release in the cell culture medium [1]: decrease
- Sox2 protein expression [1]: increase

Substance: SEQ ID NO: 19: GFR-binding compound, osteogenic, coated on apatite ceramics or collagen sponge; sequence not in this part (WWFWGSAISTLYLDEYDKVVLKNYQ; also: cyclic, ring type not given here)
- production of extracellular matrix proteins such as Osteopontin (OPN) [7]: extensive amounts
- ALP activity [8]: increase
